For series [1], the system named is TNF-α production. Briefly: Inhibition of TNF-α production following LPS-stimulation of human PBMC. The class given is cell-based. Particulars: for IC50: human PBMC, LPS-stimulated, read-out: IC50 for inhibiting production of TNF-α following LPS-stimulation of PBMC. The text has this: (§1) Inhibitions of TNF-α production following LPS-stimulation of human PBMC and human whole blood by 3-(4-amino-1-oxo-1,3-dihydro-isoindol-2-yl)-piperidine-2,6-dione, 4-(amino)-2-(2,6-dioxo-(3-piperidyl))-isoindoline-1,3-dione and thalidomide were investigated in vitro.

Series [2] concerns TNF-α production. Briefly: Inhibition of TNF-α production following LPS-stimulation of human whole blood. The class given is cell-based. Particulars: LPS-stimulated, read-out: IC50 for inhibiting production of TNF-α following LPS-stimulation of human whole blood.
Source text: as §1

For another series, the system named is IL1β production. Briefly: LPS-stimulated production of IL1β by PBMC. The class given is cell-based.
The test system of another series is IL6 production. Briefly: LPS-stimulated production of IL6 by PBMC. The class given is cell-based.
Another series deals with IL10 production. As to the kind of experiment: LPS-stimulated production of IL10 by PBMC. The class given is cell-based.
The next series has as its system Beagle dogs. As to the kind of experiment: Cardiovascular and respiratory function in anesthetized dogs. The class given is in vivo, dog. The following applies: for cardiovascular and respiratory changes compared to the vehicle control group: anesthetized Beagle dogs, 2, 10 and 20 mg/kg, infusion through the jugular vein, all doses; for duration of the arterial blood pressure increase / change in arterial blood pressure / deviations in femoral blood flow, respiratory parameters, and Qtc interval: anesthetized Beagle dogs; for duration of the arterial blood pressure increase / change in arterial blood pressure: low dose; for change in arterial blood pressure: i.v. infusion, statistically significant, not seen at higher doses; for deviations in femoral blood flow, respiratory parameters, and Qtc interval: common to both control and treated groups. From the text: The effects of 3-(4-amino-1-oxo-1,3-dihydro-isoindol-2-yl)-piperidine-2,6-dione and 4-(amino)-2-(2,6-dioxo-(3-piperidyl))-isoindoline-1,3-dione on cardiovascular and respiratory function were investigated in anesthetized dogs. Two groups of Beagle dogs (2/sex/group) were used. One group received three doses of vehicle only and the other receives three ascending doses of 3-(4-amino-1-oxo-1,3-dihydro-isoindol-2-yl)-piperidine-2,6-dione or 4-(amino)-2-(2,6-dioxo-(3-piperidyl))-isoindoline-1,3-dione (2, 10, and 20 mg/kg). In all cases, doses of 3-(4-amino-1-oxo-1,3-dihydro-isoindol-2-yl)-piperidine-2,6-dione, 4-(amino)-2-(2,6-dioxo-(3-piperidyl))-isoindoline-1,3-dione or vehicle were successively administered via infusion through the jugular vein separated by intervals of at least 30 minutes.

The subject of a further series is CRPS patients. Briefly: Clinical study in patients with upper extremity CRPS. The class given is in vivo, human. Particulars: 10 mg continuous oral daily dose. The protocol: Immunomodulatory compounds such as 4-(amino)-2-(2,6-dioxo(3-piperidyl))-isoindoline-1,3-dione and 3-(4-amino-1-oxo-1,3-dihydro-isoindol-2-yl)-piperidine-2,6-dione are administered in an amount of 0.1 to 25 mg per day to patients with pain syndromes for three to six months. A baseline evaluation is performed for the effect of the drug treatment on pain intensity, impact of pain on activities of daily living, and consumption of other pain medications.
In a specific embodiment, clinical studies are performed in pain patients who have upper extremity CRPS that has not responded to conventional physical therapy and has been present for at least one year. In the early course of their diseases, patients have clear evidence of autonomic dysfunction with formal autonomic testing (Quantitative sudomotor axon reflex test (QSART), resting sweat output, and thermography). […] Responses are assessed using standard pain scales, e.g., Numeric Pain Scale Assessment (VAS) for pain, quality of life using the McGill Index and objective signs in clinical examination such as a visible reduction of swelling, sweating, discolorations in skin color, temperature changes, changes in skin, hair and nail growth, and fine motor movements. […]

The IC50 is the midpoint of a concentration-inhibition curve.

As for `Nc1cccc2c1C(=O)N(C1CCC(=O)NC1=O)C2=O` (stereo not drawn) [4-(Amino)-2-(2,6-dioxo(3-piperidyl))-isoindoline-1,3-dione], in the series with TNF-α production [1], the “effect on LPS-stimulated production of TNF-α by PBMC” value is “dose-dependent inhibition” and the IC50 is approximately 24 nM. In the series with TNF-α production [2], the IC50 was approximately 25 nM. The “effect on LPS-stimulated production of IL1β by PBMC” value in the series on IL1β production is “dose-dependent inhibition”. For the same compound, the “effect on LPS-stimulated production of IL6 by PBMC” value in the series on IL6 production was “dose-dependent inhibition”. In the series with IL10 production, the “effect on production of the anti-inflammatory cytokine IL10” value is “increased production”. In the series on Beagle dogs, the “cardiovascular and respiratory changes compared to the vehicle control group” value is reported as “minimal”; the “duration of the arterial blood pressure increase” value is “approximately 15 minutes”; the “change in arterial blood pressure” value is “small increase”; the “deviations in femoral blood flow, respiratory parameters, and Qtc interval” value is given as “not considered treatment-related”.

In the case of `Nc1cccc2c1CN(C1CCC(=O)NC1=O)C2=O` (stereo not drawn) [3-(4-amino-1-oxo-1,3-dihydro-isoindol-2-yl)-piperidine-2,6-dione], in the series on TNF-α production [1], the “effect on LPS-stimulated production of TNF-α by PBMC” value was “dose-dependent inhibition” and the IC50 was approximately 100 nM. Besides, in the series with TNF-α production [2], the IC50 is approximately 480 nM. Further, in the series with IL1β production, the “effect on LPS-stimulated production of IL1β by PBMC” value is recorded as “dose-dependent inhibition”. In addition, the “effect on LPS-stimulated production of IL6 by PBMC” value in the series with IL6 production was “dose-dependent inhibition”. For the same compound, in the series with IL10 production, the “effect on production of the anti-inflammatory cytokine IL10” value is “increased production”. Further, in the series with Beagle dogs, the “cardiovascular and respiratory changes compared to the vehicle control group” value is listed as “minimal”; the “duration of the arterial blood pressure increase” value was “approximately 15 minutes”; the “change in arterial blood pressure” value is reported as “small increase”; the “deviations in femoral blood flow, respiratory parameters, and Qtc interval” value was “not considered treatment-related”. In addition, the tolerability result in the series on CRPS patients is “well-tolerated”.

(Values after patent publication US7612096B2, “Methods for treatment, modification and management of radiculopathy using 1-oxo-2-(2,6-dioxopiperidin-3yl)-4-aminoisoindoline” (Celgene Corporation, priority 2004, dated 2009).)
